# Assay results published in patent US7767659B2, “Synthesis of naturally occurring ecteinascidins and related compounds” (Pharma Mar, S.A., priority 2002, dated 2010).
# Key:
# [1] = tested on: SK-BR-3; experiment: Inhibition of cells growth by colorimetric assay (SRB); conditions: Homo sapiens, SK-BR-3, 48 h; for GI50: read-out: SK-BR3 GI50; for CC50: read-out: SK-BR3 LC50; for IC (TGI): read-out: SK-BR3 TGI
# Procedure, shortened: (§1)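 Colorimetric SRB read (490 nm) on triplicate wells after 48 h at 37 °C, 5% CO2. Dose range 10 to 10^−8 μg/ml; 5×10^3 cells/well pre-attached 18 h.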
# [2] = tested on: PANC-1; experiment: as above; conditions: Homo sapiens, PANC-1, 48 h; for GI50: read-out: PANC-1 GI50; for CC50: read-out: PANC-1 LC50; for IC (TGI): read-out: PANC-1 TGI
# Procedure, shortened: as §1
# [3] = tested on: LNCaP; experiment: as above; conditions: Homo sapiens, LNCaP, 48 h; for GI50: read-out: LNCAP GI50; for CC50: read-out: LNCAP LC50; for IC (TGI): read-out: LNCAP TGI
# Procedure, shortened: as §1
# [4] = tested on: LoVo-Dox; experiment: as above; conditions: Homo sapiens, 48 h; for GI50: read-out: LOVO-DOX GI50; for CC50: read-out: LOVO-DOX LC50; for IC (TGI): read-out: LOVO-DOX TGI
# Procedure, shortened: as §1
# [5] = tested on: IGROV-ET; experiment: as above; conditions: Homo sapiens, 48 h; for GI50: read-out: IGROV-ET GI50; for CC50: read-out: IGROV-ET LC50; for IC (TGI): read-out: IGROV-ET TGI
# Procedure, shortened: as §1
# [6] = tested on: HeLa-APL; experiment: as above; conditions: Homo sapiens, 48 h; for GI50: read-out: HELA-APL GI50; for CC50: read-out: HELA-APL LC50; for IC (TGI): read-out: HELA-APL TGI
# Procedure, shortened: as §1
# [7] = tested on: SK-MEL-28; experiment: as above; conditions: Homo sapiens, SK-MEL-28, 48 h; for GI50: read-out: MEL-28 GI50; for CC50: read-out: MEL-28 LC50; for IC (TGI): read-out: MEL-28 TGI
# Procedure, shortened: as §1
# [8] = tested on: HeLa; experiment: as above; conditions: Homo sapiens, HeLa, 48 h; for GI50: read-out: HELA GI50; for CC50: read-out: HELA LC50; for IC (TGI): read-out: HELA TGI
# Procedure, shortened: as §1
# [9] = tested on: DU-145; experiment: as above; conditions: Homo sapiens, DU-145, 48 h; for GI50: read-out: DU145 GI50; for CC50: read-out: DU145 LC50; for IC (TGI): read-out: DU145 TGI
# Procedure, shortened: as §1
# [10] = tested on: K-562; experiment: as above; conditions: Homo sapiens, K562, 48 h; for GI50: read-out: K562 GI50; for CC50: read-out: K562 LC50; for IC (TGI): read-out: K562 TGI
# Procedure, shortened: as §1
# [11] = tested on: IGROV-1; experiment: as above; conditions: Homo sapiens, IGROV-1, 48 h; for GI50: read-out: IGROV GI50; for CC50: read-out: IGROV LC50; for IC (TGI): read-out: IGROV TGI
# Procedure, shortened: as §1
# [12] = tested on: HT-29; experiment: cells; conditions: Homo sapiens, HT-29, 48 h; for GI50: read-out: HT29 GI50; for CC50: read-out: HT29 LC50; for IC (TGI): read-out: HT29 TGI
# Procedure, shortened: as §1
# [13] = tested on: A-549; experiment: cells; conditions: Homo sapiens, A549, 48 h; for GI50: read-out: A549 GI50; for CC50: read-out: A549 LC50; for IC (TGI): read-out: A549 TGI
# Procedure, shortened: as §1
# [14] = tested on: LoVo; experiment: cells; conditions: Homo sapiens, LoVo, 48 h; for GI50: read-out: LOVO GI50; for CC50: read-out: LOVO LC50; for IC (TGI): read-out: LOVO TGI
# Procedure, shortened: as §1
compound,measurement,setting,value
COc1c(C)cc2c(c1OC(=O)/C=C/c1ccccc1)[C@H]1N[C@@H](C2)[C@H](O)N2C1[C@@H]1SCC(NC(=O)C(F)(F)F)C(=O)OC[C@H]2c2c3c(c(C)c(OC(C)=O)c21)OCO3 (stereo partly drawn) [compound 40],GI50,[1],42.6 nM
same,CC50,[1],524 nM
same,IC (TGI),[1],97.6 nM
same,GI50,[2],321 nM
same,CC50,[2],2570 nM
same,IC (TGI),[2],747 nM
same,GI50,[3],48.1 nM
same,CC50,[3],509 nM
same,IC (TGI),[3],162 nM
same,GI50,[4],354 nM
same,CC50,[4],2790 nM
same,IC (TGI),[4],810 nM
same,GI50,[5],289 nM
same,CC50,[5],980 nM
same,IC (TGI),[5],533 nM
same,GI50,[6],153 nM
same,CC50,[6],775 nM
same,IC (TGI),[6],344 nM
same,GI50,[7],162 nM
same,CC50,[7],688 nM
same,IC (TGI),[7],334 nM
same,GI50,[8],111 nM
same,CC50,[8],661 nM
same,IC (TGI),[8],276 nM
same,GI50,[9],5630 nM
same,CC50,[9],1630 nM
same,IC (TGI),[9],160 nM
same,GI50,[10],41.4 nM
same,CC50,[10],776 nM
same,IC (TGI),[10],131 nM
same,GI50,[11],91.3 nM
same,CC50,[11],1280 nM
same,IC (TGI),[11],317 nM
same,GI50,[12],337 nM
same,CC50,[12],3840 nM
same,IC (TGI),[12],1050 nM
same,GI50,[13],195 nM
same,CC50,[13],1030 nM
same,IC (TGI),[13],447 nM
same,GI50,[14],213 nM
same,CC50,[14],1680 nM
same,IC (TGI),[14],552 nM
C=CCN1[C@@H]2c3c(cc(C)c(OC)c3O)C[C@H]1[C@H](O)N1C2[C@@H]2SCC(NC(C)=O)C(=O)OC[C@H]1c1c3c(c(C)c(OC(C)=O)c12)OCO3 (stereo partly drawn) [compound 41],GI50,[1],32.3 nM
same,CC50,[1],352 nM
same,IC (TGI),[1],72.2 nM
same,GI50,[2],37.7 nM
same,CC50,[2],14700 nM
same,IC (TGI),[2],100 nM
same,GI50,[3],0.95 nM
same,CC50,[3],92.8 nM
same,IC (TGI),[3],31.4 nM
same,GI50,[4],270 nM
same,CC50,[4],14700 nM
same,IC (TGI),[4],1180 nM
same,GI50,[5],41.8 nM
same,CC50,[5],14700 nM
same,IC (TGI),[5],87.1 nM
same,GI50,[6],30.1 nM
same,CC50,[6],132 nM
same,IC (TGI),[6],63.1 nM
same,GI50,[7],33.7 nM
same,CC50,[7],123 nM
same,IC (TGI),[7],64.5 nM
same,GI50,[8],28.2 nM
same,CC50,[8],120 nM
same,IC (TGI),[8],58.1 nM
same,GI50,[9],45.3 nM
same,CC50,[9],274 nM
same,IC (TGI),[9],75.5 nM
same,GI50,[10],20.4 nM
same,CC50,[10],125 nM
same,IC (TGI),[10],50.5 nM
same,GI50,[11],15.7 nM
same,CC50,[11],121 nM
same,IC (TGI),[11],43.7 nM
same,GI50,[12],42.7 nM
same,CC50,[12],14700 nM
same,IC (TGI),[12],120 nM
same,GI50,[13],43.1 nM
same,CC50,[13],125 nM
same,IC (TGI),[13],73.5 nM
same,GI50,[14],37.8 nM
same,CC50,[14],14700 nM
same,IC (TGI),[14],94 nM
COc1c(C)cc2c(c1O)[C@H]1N[C@@H](C2)[C@H](O)N2C1[C@@H]1SCC(=O)C(=O)OC[C@H]2c2c3c(c(C)c(OC(C)=O)c21)OCO3 (stereo partly drawn) [compound 43],GI50,[1],5.83 nM
same,CC50,[1],164 nM
same,IC (TGI),[1],24.2 nM
same,GI50,[2],22.9 nM
same,CC50,[2],2150 nM
same,IC (TGI),[2],82.7 nM
same,GI50,[3],6.58 nM
same,CC50,[3],88.7 nM
same,IC (TGI),[3],20.2 nM
same,GI50,[4],423 nM
same,CC50,[4],16700 nM
same,IC (TGI),[4],1150 nM
same,GI50,[5],68.5 nM
same,CC50,[5],5800 nM
same,IC (TGI),[5],369 nM
same,GI50,[6],24.1 nM
same,CC50,[6],423 nM
same,IC (TGI),[6],73.2 nM
same,GI50,[7],9.09 nM
same,CC50,[7],91 nM
same,IC (TGI),[7],32.7 nM
same,GI50,[8],9.39 nM
same,CC50,[8],145 nM
same,IC (TGI),[8],39.9 nM
same,GI50,[9],13.6 nM
same,CC50,[9],2920 nM
same,IC (TGI),[9],67 nM
same,GI50,[10],3.11 nM
same,CC50,[10],895 nM
same,IC (TGI),[10],13.8 nM
same,GI50,[11],10.6 nM
same,CC50,[11],384 nM
same,IC (TGI),[11],49.6 nM
same,GI50,[12],24.2 nM
same,CC50,[12],16700 nM
same,IC (TGI),[12],190 nM
same,GI50,[13],26.1 nM
same,CC50,[13],148 nM
same,IC (TGI),[13],62.1 nM
same,GI50,[14],31.2 nM
same,CC50,[14],16700 nM
same,IC (TGI),[14],86.7 nM
C=CCN1[C@@H]2c3c(cc(C)c(OC)c3O)C[C@H]1[C@H](C#N)N1C2[C@@H]2SC[C@]3(NCCc4cc(OC(=O)OC(C)(C)C)c(OC)cc43)C(=O)OC[C@H]1c1c3c(c(C)c(OC(C)=O)c12)OCO3 (stereo partly drawn) [compound 44],GI50,[1],3.27 nM
same,CC50,[1],76.1 nM
same,IC (TGI),[1],11.9 nM
same,GI50,[2],75.2 nM
same,CC50,[2],11100 nM
same,IC (TGI),[2],344 nM
same,GI50,[3],4.53 nM
same,CC50,[3],48 nM
same,IC (TGI),[3],20.4 nM
same,GI50,[4],297 nM
same,CC50,[4],11100 nM
same,IC (TGI),[4],919 nM
same,GI50,[5],49.2 nM
same,CC50,[5],11100 nM
same,IC (TGI),[5],443 nM
same,GI50,[6],25 nM
same,CC50,[6],352 nM
same,IC (TGI),[6],59.6 nM
same,GI50,[7],23.4 nM
same,CC50,[7],90.1 nM
same,IC (TGI),[7],45.9 nM
same,GI50,[8],20.2 nM
same,CC50,[8],87.5 nM
same,IC (TGI),[8],42 nM
same,GI50,[9],23.4 nM
same,CC50,[9],11100 nM
same,IC (TGI),[9],71.9 nM
same,GI50,[10],7.97 nM
same,CC50,[10],11100 nM
same,IC (TGI),[10],77.9 nM
same,GI50,[11],32.6 nM
same,CC50,[11],11100 nM
same,IC (TGI),[11],78 nM
same,GI50,[12],38.8 nM
same,CC50,[12],11100 nM
same,IC (TGI),[12],1540 nM
same,GI50,[13],27.4 nM
same,CC50,[13],470 nM
same,IC (TGI),[13],56.7 nM
same,GI50,[14],33.9 nM
same,CC50,[14],11100 nM
same,IC (TGI),[14],143 nM
C=CCN1[C@@H]2c3c(cc(C)c(OC)c3OC(=O)OC(C)(C)C)C[C@H]1[C@H](C#N)N1C2[C@@H]2SC[C@]3(NCCc4cc(OC(=O)OC(C)(C)C)c(OC)cc43)C(=O)OC[C@H]1c1c3c(c(C)c(OC(C)=O)c12)OCO3 (stereo partly drawn) [compound 45],GI50,[1],2.83 nM
same,CC50,[1],133 nM
same,IC (TGI),[1],7.56 nM
same,GI50,[2],229 nM
same,CC50,[2],10000 nM
same,IC (TGI),[2],1240 nM
same,GI50,[3],3.83 nM
same,CC50,[3],51.5 nM
same,IC (TGI),[3],17.3 nM
same,GI50,[4],479 nM
same,CC50,[4],10000 nM
same,IC (TGI),[4],3140 nM
same,GI50,[5],86.5 nM
same,CC50,[5],10000 nM
same,IC (TGI),[5],497 nM
same,GI50,[6],28.4 nM
same,CC50,[6],783 nM
same,IC (TGI),[6],121 nM
same,GI50,[7],117 nM
same,CC50,[7],689 nM
same,IC (TGI),[7],285 nM
same,GI50,[8],16.4 nM
same,CC50,[8],79.7 nM
same,IC (TGI),[8],36.2 nM
same,GI50,[9],35.9 nM
same,CC50,[9],10000 nM
same,IC (TGI),[9],103 nM
same,GI50,[10],17.6 nM
same,CC50,[10],10000 nM
same,IC (TGI),[10],150 nM
same,GI50,[11],56.9 nM
same,CC50,[11],10000 nM
same,IC (TGI),[11],392 nM
same,GI50,[12],83.6 nM
same,CC50,[12],10000 nM
same,IC (TGI),[12],1410 nM
same,GI50,[13],162 nM
same,CC50,[13],1500 nM
same,IC (TGI),[13],413 nM
same,GI50,[14],130 nM
same,CC50,[14],614 nM
same,IC (TGI),[14],283 nM
